Where two headings read alike, the source gives them in different places.
Experiments:
Type in all cases: cell-based, human
PAXF 1657 = experiment: CellTiter-Blue 2D monolayer assay (Example 1), pancreas; settings: for Test/Control (%): 72 h
Experimental: (§1) Compound 85 was assessed in 10 human tumor cell lines (see Table 3) for anti-cancer activity in vitro using a CellTiter-Blue® based 2D monolayer assay.
(§2) CellTiter-Blue® Cell Viability Assay: Tumor cells were grown at 37° C. in a humidified atmosphere with 5% CO2 in RPMI medium, supplemented with 10% (v/v) fetal calf serum and 50 μg/ml gentamicin (140 μl/well). Cultures were incubated at 37° C. and 5% CO2 in a humidified atmosphere. After 24 hours, 10 μl of Compound 85 was added, and left on the cells for another 72 hours (incubation period). Compound 85 was tested at 5 concentrations (0.003 μM, 0.03 μM, 0.3 μM, 3 μM, and 30 μM) and serially diluted in DMSO, mixed with cell culture medium, and added to the assay plates by using a Tecan Freedom EVO 200 robotic platform. The DMSO concentration was kept constant at 0.3% yip across the assay plate. Every 96 well plate included six DMSO-treated control wells and Compound 85-treated wells in duplicate at 5 concentrations. Viability of cells was quantified using the CellTiter-Blue® cell viability assay (Promega G8081). After incubation of cells, the CellTiter-Blue® reagent was brought to ambient temperature. Next, 20 μl of CellTiter-Blue® reagent were added to each well. After incubation tier up to 4 hours, fluorescence (FU) was measured using the EnSpire® multimode plate reader (Perkin Elmer) ([…]).
(§3) Data Evaluation: Sigmoidal concentration-response curves were fitted to the data points (test-versus-control; T/C values) obtained for each tumor model using 4 parameter non-linear curve fit (Charles River DRS Datawarehouse Software). Drug effects are expressed in terms of the percentage of the fluorescence signal, obtained by comparison of the mean signal in the treated wells with the mean signal of the untreated controls (T/C-value [%]) (Table 4). IC50 and IC70 values were reported as relative and absolute IC50 and IC70 values (Table 5). The absolute IC50 and IC70 values reflect the concentration of Compound 85 that achieves T/C=50% and T/C=30%, respectively. The relative IC50 value is the concentration of Compound 85 that gives a response half way between the top and bottom plateau of the sigmoidal concentration-response curve (inflection point of the curve).

PAXF HUP-T3 = experiment: as above; settings: for Test/Control (%): 72 h
Experimental: as §1, §2, §3

OVXF 899 = experiment: CellTiter-Blue 2D monolayer assay (Example 1), ovarian; settings: for Test/Control (%): 72 h
Experimental: as §1, §2, §3

OVXF A2780 = experiment: as above; settings: for Test/Control (%): 72 h
Experimental: as §1, §2, §3

MEXF 1341 = experiment: CellTiter-Blue Cell Viability Assay (Example 2), melanoma; settings: for T/C %: 72 h
Source text: (§4) The CellTiter-Blue® Cell Viability Assay was used to assess the viability of cells from various cancer cell lines, in the presence or absence of Compound 85 (at different concentrations). This assay provides a homogeneous, fluorometric method for estimating the number of viable cells present in multi-well plates. Viable cells retain the ability to reduce resazurin to resorufin, which is highly fluorescent. […] The fluorescence produced is proportional to the number of viable cells. There is a linear relationship between cell number and fluorescence.
(§5) Cancer cells (see Table 6) were harvested from exponential phase cultures, counted and plated in 96 well flat-bottom microtiter plates, at a cell density 6,000-20,000 cells/well, depending on the cell line's growth rate. The culture medium was supplemented with 10% (v/v) foetal calf serum and 50 μg/mL gentamicin (140 μL/well). Cultures were incubated at 37° C. and 5% CO2 in a humidified atmosphere.
(§6) Compound 85 was serially diluted in DMSO, and five Compound 85 concentrations in half-log increments were used: 0.03 μM, 0.09 μM, 0.30 μM, 1.0 μM, and 3.0 μM. After 24 h, 10 μL of Compound 85 (dissolved in DMSO) or control (DMSO) medium were added, in duplicates, and left on the cells for another 72 h. Compound 85 solutions were added to the assay plates using a Tecan Freedom EVO 200 robotic platform. The DMSO concentration was kept constant at 0.3% v/v across the assay plate.
(§7) After incubation of up to 72 hours, fluorescence (FU) was measured using the EnSpire® multimode plate reader (Perkin Elmer) (excitation λ=570 nm, emission λ=600 nm).
(§8) Cancer cell lines used: Compound 85's anti-cancer effect was tested in 20 human cancer-cell lines representing nine cancer types (Table 6).
(§9) The percentage of viable cells in the presence of Compound 85 (Test condition, T), at different concentrations, are presented in Table 7 and expressed as a percentage of the number of viable cells in the presence of DMSO without Compound 85 (Control condition, C).
(§10) The relative IC50 is determined as the Compound 85 concentration giving a response halfway between the maximum cell viability signal (i.e., a 100% cell viability, no Compound 85 response) and the minimal viability signal (i.e. maximum cell viability inhibition achieved by Compound 85), in a sigmoidal concentration-effect curve.
(§11) The absolute IC50 is determined as the concentration that is associated with a T/C ratio of 50%.

MEXF 1737 = experiment: as above; settings: for T/C %: 72 h
Source text: as §4, §5, §6, §7, §8, §9, §10, §11

CC(C)(O)Cn1nc(-c2ccccc2)c2c(Cl)c(-c3ccccc3)nnc21 [Compound 85]
Rel. IC70 (PAXF 1657): 2.043 µM | Test/Control (%) (PAXF 1657; 0.003 μM): 100% | Test/Control (%) (PAXF 1657; 0.03 μM): 100% | Test/Control (%) (PAXF 1657; 0.3 μM): 100% | Test/Control (%) (PAXF 1657; 3 μM): 3% | Test/Control (%) (PAXF 1657; 30 μM): 1% | Abs. IC70 (PAXF 1657; T/C=30%): 2.055 µM | IC50 (PAXF 1657; T/C=50%, read-out: Abs. IC50): 1.85 µM | Bot. (%) (PAXF 1657; bottom plateau of curve): 1% | IC50 (PAXF 1657; read-out: Rel. IC50): 1.84 µM | Top (%) (PAXF 1657; top plateau of curve): 100% | Rel. IC70 (PAXF HUP-T3): 1.505 µM | Test/Control (%) (PAXF HUP-T3; 0.003 μM): 100% | Test/Control (%) (PAXF HUP-T3; 0.03 μM): 101% | Test/Control (%) (PAXF HUP-T3; 0.3 μM): 79% | Test/Control (%) (PAXF HUP-T3; 3 μM): 16% | Test/Control (%) (PAXF HUP-T3; 30 μM): 6% | Abs. IC70 (PAXF HUP-T3; T/C=30%): 1.518 µM | IC50 (PAXF HUP-T3; T/C=50%, read-out: Abs. IC50): 0.794 µM | Bot. (%) (PAXF HUP-T3; bottom plateau of curve): 0% | IC50 (PAXF HUP-T3; read-out: Rel. IC50): 0.785 µM | Top (%) (PAXF HUP-T3; top plateau of curve): 101% | Rel. IC70 (OVXF 899): 0.739 µM | Test/Control (%) (OVXF 899; 0.003 μM): 108% | Test/Control (%) (OVXF 899; 0.03 μM): 106% | Test/Control (%) (OVXF 899; 0.3 μM): 86% | Test/Control (%) (OVXF 899; 3 μM): 2% | Test/Control (%) (OVXF 899; 30 μM): 1% | Abs. IC70 (OVXF 899; T/C=30%): 0.775 µM | IC50 (OVXF 899; T/C=50%, read-out: Abs. IC50): 0.553 µM | Bot. (%) (OVXF 899; bottom plateau of curve): 1% | IC50 (OVXF 899; read-out: Rel. IC50): 0.522 µM | Top (%) (OVXF 899; top plateau of curve): 107% | Rel. IC70 (OVXF A2780): 1.872 µM | Test/Control (%) (OVXF A2780; 0.003 μM): 101% | Test/Control (%) (OVXF A2780; 0.03 μM): 94% | Test/Control (%) (OVXF A2780; 0.3 μM): 101% | Test/Control (%) (OVXF A2780; 3 μM): 1% | Test/Control (%) (OVXF A2780; 30 μM): 0% | Abs. IC70 (OVXF A2780; T/C=30%): 1.868 µM | IC50 (OVXF A2780; T/C=50%, read-out: Abs. IC50): 1.69 µM | Bot. (%) (OVXF A2780; bottom plateau of curve): 0% | IC50 (OVXF A2780; read-out: Rel. IC50): 1.7 µM | Top (%) (OVXF A2780; top plateau of curve): 99% | Absolute IC70 (MEXF 1341): 0.445 µM | Relative IC70 (MEXF 1341): 0.451 µM | T/C % (MEXF 1341; 0.03 μM): 97% | T/C % (MEXF 1341; 0.095 μM): 91% | T/C % (MEXF 1341; 0.3 μM): 82% | T/C % (MEXF 1341; 0.95 μM): 0% | T/C % (MEXF 1341; 3.0 μM): 0% | IC50 (MEXF 1341; read-out: Absolute IC50): 0.391 µM | IC50 (MEXF 1341; read-out: Relative IC50): 0.399 µM | Absolute IC70 (MEXF 1737): 0.925 µM | Relative IC70 (MEXF 1737): 0.864 µM | T/C % (MEXF 1737; 0.03 μM): 99% | T/C % (MEXF 1737; 0.095 μM): 97% | T/C % (MEXF 1737; 0.3 μM): 101% | T/C % (MEXF 1737; 0.95 μM): 27% | T/C % (MEXF 1737; 3.0 μM): 16% | IC50 (MEXF 1737; read-out: Absolute IC50): 0.826 µM | IC50 (MEXF 1737; read-out: Relative IC50): 0.799 µM

— US12544373B2, “Treatment of cancer, inflammatory diseases and autoimmune diseases” (Usher III Initiative, Inc., priority 2020, dated 2026)
